The results in this text go back to patent publication US10041936B2, “Neuronal cells cultured on microparticles and methods of using same” (The Regents of the University of California, priority 2009, dated 2018).

The subject of the experiment is Rat hippocampal neurons. Briefly: Culture of hippocampal neurons on PLL-coated beads in media with mitotic inhibitor. In kind it is cell-based. As to the method:
Borosilicate Glass Spheres (MO-SCI Specialty Products, Rolla, Mo.) were sterilized in an ethanol solution overnight, and dried under vacuum. Then the beads were incubated in a borate buffer solution for one hour, before being left in PLL solution overnight. Hippocampi were removed from embryonic day 18 (E18) rats and treated with trypsin for 20 min at 37° C., followed by washing and trituration. Dissociated cells were plated at 75,000 cells/cm^2 on poly-lysine-coated glass beads and cultured in neurobasal medium supplemented with 2 mM Glutamax, 2% FBS, and 2% B-27. Cells were transfected with Lipofectamine 2000 (Invitrogen) or they were infected with lenti virus after 5-15 days after dissociation and analyzed 2-14 days after infection.
Rat hippocampal neurons were selected as model mammalian brain neurons. Following dissection at a late embryonic stage (E18), or early postnatal stage (P4), the neurons were dissociated and cultured on beads coated with poly-L-lysine (PLL) to enhance cell adhesion and to support maturation.(13, 14) The neurons were grown on the beads using standard techniques developed for conventional 2D cultures (Pautot et al., 2008). […] However, a small number of supporting glial cells, which contribute to neuronal development by stimulating neuron growth and maturation, were also present. […]

As for `Nc1ccn([C@@H]2O[C@H](CO)[C@@H](O)[C@@H]2O)c(=O)n1` [araC], the “neuron outgrowth and branching” value (araC added to the culture media, no conditioned media) is reported as “slowed”. Moreover, the “growth of neurons on the beads” value (araC combined with conditioned media from glial feeder cell cultures, more than 3 weeks) is given as “robust growth”.
